From a melting point compilation (Tetko et al.; mined from patent text by program, amines drawn as free bases though some values may be those of a salt)

| SMILES | melting point |
| --- | --- |
| CCCc1c(OCCCOc2ccc(C(=O)CCC(=O)O)c(Cl)c2)ccc(C(C)=O)c1O | 143 to 144 °C |
| Cc1coc(N2CCCC2=O)n1 | 116 °C |
| CCCCS(=O)(=O)Nc1ccc(I)cc1 | 80 to 81 °C |
| CCOC(=O)Cc1ccc(NC(=O)Nc2ccccc2C(F)(F)F)cc1 | 137 to 139 °C |
| CCCCCCCc1ccc(-c2nc(C)c(C(C)=NNC(=N)N)s2)cc1 | 233 to 235 °C |
| O=C(C=C(C(=O)O)c1csc(NC(=O)OCc2ccccc2)n1)OCc1ccccc1 | 144 to 146 °C |
| O=c1ccoc2cc(OCCCCCl)ccc12 | 75 to 78 °C |
| CN1C(=O)CSC=C1c1ccccc1 | 95 to 97 °C |
| Cc1cccnc1C(CO)COc1ccc(CC2SC(=O)NC2=O)cc1 (centres undefined) | 182 to 183 °C |
| CCOC(=O)C(Cc1cccc2ccccc12)C(=O)OCC | 30 °C |
| FC(COC1CCC(Nc2ncnc3[nH]ncc23)CC1F)c1ccccc1 (centres undefined) | 204 to 205 °C |
| C=CCCN1C(=O)C2C3CCC(O3)C2C1=O (centres undefined) | 64 to 65 °C |
| CCOC(=O)c1c(C(C)(C)C)oc(-c2ccccc2)c1-c1ccc(F)cc1 | 93 to 94 °C |
| Cc1cccc(C)c1NC(=O)CN1CCN2C(C1)C(=O)N(C(C)C)C2(C)C (centres undefined) | 155 °C |
| O=C(c1cccs1)C1CCN(Cc2ccccc2)CC1 | 83.9 °C |
| C#CCNC(=C[N+](=O)[O-])NCCSCc1csc(NC(=N)N)n1 | 82 to 90 °C |
| c1ccc(-c2cc3nnc(-c4cnccn4)n3nc2OCc2nc[nH]n2)cc1 | 255 °C |
| C=C(C)C(=O)OCCC(=O)Oc1ccc(-c2cc(OC(=O)C(=C)C)cc(-c3ccc(OC(=O)CCOC(=O)C(=C)C)cc3)c2)cc1 | 88 °C |
| CC(=O)C#CC1CCC2C3CCC4CC(O)CCC4(C)C3CCC12C (centres undefined) | 148 to 150 °C |
| COc1cc(COc2nn(-c3ccccc3)cc2/C=C/c2nc(N3CCOCC3)sc2C)ccc1OCc1nc(-c2ccc(CC(=O)O)cc2)oc1C | 171 to 173 °C |
| O=[N+]([O-])c1nc(NCCO)ccc1NCCO | 158 °C |
| COCc1cccc(-c2ccc3nc(-c4ccc(Cl)cc4)c(Cl)n3c2)c1 | 120 to 122 °C |
| CCOC(=O)c1nc2scc(COCc3ccc(C#N)cc3)c2c(=O)[nH]1 | 236 to 237 °C |
| CSc1sc(-c2cccnc2)c2c1-c1oncc1C(C)(C)C2 | 123 to 125 °C |
| CC(C)c1ccccc1N1C(=O)CON(C)C1=S | 98 to 101 °C |
| CCCn1c(=O)c2c(nc(/C=C/c3ccc4c(c3)OCO4)n2C)n(CCC)c1=O | 152 to 155 °C |

| SMILES | melting point |
| --- | --- |
| Cc1cc(S(=O)(=O)NCC(C)c2ccccc2)ccc1Cl (centres undefined) | 73 to 74 °C |
| CC1CC(N2C(=O)c3ccccc3C2=O)C(=O)NC1=O (centres undefined) | 270 to 272 °C |
| COc1ccc(C(=O)Nc2ccc(Cl)c(Cl)c2)cc1NCc1cccs1 | 178 to 180 °C |
| C=CCc1ccc(C(=O)CCC(=O)OC)cc1O | 90 to 92.5 °C |
| CNC1CCC2C3CCc4cc(OC)ccc4C3CCC12C (centres undefined) | 136 to 137 °C |
| CCCC1=C(C#N)C(c2ccccc2Cl)c2c(n[nH]c2C2CCCCC2)N1 (centres undefined) | > 270 °C |
| COC(c1sc2ccc(Cl)cc2c1Cl)C(C)NC(=O)c1cn(C)nc1C(F)F (centres undefined) | 128 to 132 °C |
| Nc1c(-c2ccc(Cl)cc2)sc2ccccc12 | 152 to 154 °C |
| O=C(Cn1nc(-c2cc(Cl)ccc2O)nc1-c1cc(Cl)ccc1O)NCCN1CCOCC1 | 224 to 226 °C |
| O=C(O)c1ccc(CO/N=C/c2cn(Cc3ccccc3)c3ccccc23)cc1Br | 107 to 109 °C |
| CC(=O)OCC1CCc2c(C3=C(c4cn(C)c5ccccc45)C(=O)OC3=O)c3ccccc3n2C1 (centres undefined) | 190 to 193 °C |
| O=C1NCCc2[nH]c3c(F)ccc(F)c3c21 | 221 to 223 °C |
| O=c1[nH]c(N2CCN(CCCCN3CCCCC3)CC2)cc2ccc(Br)cc12 | 211 to 212 °C |
| CCc1c(-c2ccc(OC)cc2)c2ccc3cc(OC)cc1n32 | 109 to 111 °C |
| COC(=O)c1cscc1N=C=S | 93 to 95 °C |
| CCN(CC)Cc1nc(-c2ccc(OC)c(OC)c2)c2cc(OC)c(OC)cc2n1 | 111 to 113 °C |
| CN(C)c1ccc(-c2nc3c(N[C@H]4[C@@H](C(N)=O)[C@@H]5C=C[C@H]4C5)ccnc3[nH]2)cc1 | 245 to 251 °C |
| COCC1(N2C(=O)NC(=O)C2=O)C=CC=C(OC2CC(F)CC2Cl)C1 (centres undefined) | 90 to 91 °C |
| Cc1cc(Cl)cc(C(=O)Nc2ccc(F)cn2)n1 | 156 °C |
| CN(C(=O)CCS)c1nnc(-c2cccnc2)s1 | 149 to 151 °C |
| Cc1ccc(Oc2c(C)cc(N)c(C)c2Cl)c(C)c1 | 86 to 88 °C |
| COc1ccccc1-c1nc(CC(=O)O)cs1 | 104 to 105 °C |
| COc1ccccc1N1CCN([C@@H]2Cc3c(O)cccc3C[C@H]2O)CC1 (relative stereo) | 218 to 220 °C |
| N#Cc1cccc(C(=O)Cc2ccnnc2)c1 | 142 to 144 °C |
| c1ccc(C(c2ccccc2)N2CCN(Cc3cscn3)CC2)cc1 | 114 to 116 °C |
| Cc1csc2ncc(C(O)CCc3ccccc3)n12 (centres undefined) | 144 to 145 °C |

| SMILES | melting point |
| --- | --- |
| COc1ccc(-c2nn(CC(C)C)c3c(F)cccc23)c(OC)c1 | 92 to 93 °C |
| COc1ccc2c(c1)Sc1c(cc(OC)c(OC(C)=O)c1Br)N2C | 189 to 190 °C |
| CCOc1cc(C(C)(C)C)ccc1-c1nc(-c2c(F)cccc2Cl)nn1C | 108 to 111 °C |
| CCOC(=O)c1c(N)sc(N=Cc2cccs2)c1C(=O)OCC | 114 to 116 °C |
| CC(C)(C)[Si](C)(C)O[C@@H]1C[C@]2(O)C[C@@H](OC2=O)C1=O | 92 to 95 °C |
| O=C(O)c1cc2cc(C3CCCCC3)ccc2nn1 | 159 to 161 °C |
| COc1cccc2c1OCC(C(=O)O)O2 (centres undefined) | 85 to 87 °C |
| COC(=O)c1ccccc1CN1CCN(c2nc(C)c(C(=O)NCc3ccccc3)s2)C1=O | 130 to 133 °C |
| Cc1oc(-c2ccccc2)nc1CCOc1ccc(CCC#N)cc1 | 109 to 110 °C |
| O=C(CN1CCC(Cc2ccccc2)CC1)Nc1ccc2[nH]c(=O)[nH]c2c1 | 270 °C |
| CCCCC(=O)c1c(-c2ccc3cc(OC(Cc4ccccc4)C(=O)O)ccc3c2)oc2ccccc12 (centres undefined) | 144 to 145 °C |
| Nc1cc(Cl)cc(Cl)c1C(=O)NCc1cccc(Br)c1 | 157 to 159 °C |
| CCCCCCCCCCC/C=C/c1ccc(C=CC(=O)O)cc1 | 107 °C |
| CCCc1c(OCCCOc2cc(N)c(Cl)cc2C)ccc(C(C)=O)c1O | 81 °C |
| C[C@H](NC(=O)C[C@](O)(CC(C)(C)O)c1ccccc1)c1ccc(Br)cc1 | 150 to 152 °C |
| CON=C(C(=O)O)C(=O)CBr | 76 to 78 °C |
| CN(C(=O)Nc1ccc(Cl)c(Cl)c1)S(=O)(=O)CCl | 119 °C |
| ClC(Cl)(Cl)c1nc2ncccc2[nH]1 | 210 °C |
| CCN1CC(=O)N(C)c2cc([N+](=O)[O-])c(OC)cc2C1 | 129 to 131 °C |
| COC(=O)/C=C/c1c(-c2ccc(F)cc2)c2ccccc2n1C(C)C | 155 to 157 °C |
| CCOC(=O)CCc1cn(Cc2ccc(OCc3coc(-c4ccccc4)n3)cc2)nc1OCC | 80 to 81 °C |
| O=C(O)c1cc(Cl)cc(Oc2cccc(C(F)(F)F)c2)n1 | 81 to 82 °C |
| CCC(CC)n1nnc2c(Nc3c(Cl)cc(OC)cc3OC)nc(C)cc21 | 168 to 169 °C |
| CCCCCCCCCCCCCCCCOc1ccc(OCC(=O)N(Cc2ccccn2)C(C)=O)cc1 | 58 to 59 °C |
| Cc1ccc(OCc2ccccc2[N+](=O)[O-])c(C=O)c1 | 124 °C |
| CCCCOCCOc1ccc(-c2ccc3c(c2)C=C(C(=O)Nc2ccc(O)cc2)CCN3CC(C)C)cc1 | 155 to 157 °C |

| SMILES | melting point |
| --- | --- |
| CCCC1=C(C(=O)OCC)C(c2cccc(Cl)c2C)c2c[nH]nc2N1 (centres undefined) | 185 °C |
| Cc1cnc(NCCCNc2ncc(Cc3ccc(C)nc3)c(=O)[nH]2)c(C)c1 | 104 to 105 °C |
| ON=C1c2cc(Cl)ccc2-n2cccc21 | 211 °C |
| O=CNc1ccc(OCCNCC(O)c2ccc(OCc3ccccc3)cc2)cc1 (centres undefined) | 152 °C |
| O=C(O)c1ncn(Cc2ccc(Cl)c(Cl)c2)c1C(=O)O | 258 °C |
| CCn1c(=O)c2c(nc(/C=C/c3ccc(O)cc3)n2C)n(CC)c1=O | > 270 °C |
| Cc1ccc(CCC(CO)n2cnc(C(N)=O)c2)cc1 (centres undefined) | 138 to 141 °C |
| CC1(C)N=C(c2ccccc2Cl)c2cc([N+](=O)[O-])ccc2-n2cnnc21 | 262 °C |
| COC(=O)CC/C(C)=C/Cc1c(N=C=O)c2c(c(C)c1OC)COC2=O | 95 to 101 °C |
| CSc1nccc(-c2ccccc2)n1 | 87 to 89 °C |
| Cc1ccc(C(=O)c2ccc(Cc3ccc(N)cn3)n2C)cc1 | 104 to 107 °C |
| COCc1c(C=O)ncc2c1c1c(OCc3ccccc3)cccc1n2CC(=O)N(C)CCc1ccccc1 | 192 to 197 °C |
| C=C(C)c1ccc(OCCO)cc1 | 78 to 80 °C |
| CCOC(=O)C(=Cc1c(Cl)n(Cc2ccc(Cl)cc2)c2ccccc12)C(=O)OCC | 98 to 99 °C |
| OC(CCCN1CCCCC1)c1ccc2c(c1)Cc1cc(C(O)CCCN3CCCCC3)ccc1O2 (centres undefined) | 145 to 146 °C |
| CNC(=O)[C@@H]1CSCc2c(O)cc(O)c(C)c2C(=O)OC[C@H](O)C(=O)N1 | 275 °C |
| CCC12CCC(=O)C=C1c1c(cc(OCC(=O)OCC(C)=O)c(Cl)c1Cl)C2 (centres undefined) | 153 to 155 °C |
| Cc1cc2ncc(-c3cccc(C(F)(F)F)c3)c(N)n2n1 | 176 °C |
| CSP(=S)(C1CCCCC1)C1CCCCC1 | 75 to 75.5 °C |
| COc1ccc(-c2c(Br)oc3cc(OC)cc(OC)c23)cc1 | 125 to 126 °C |
| COc1ccn(-c2ccc(C3CCN(S(=O)(=O)C(C)(C)C(=O)NO)CC3)cc2C)n1 | 172 to 173 °C |
| COc1ccccc1OCC(O)CCCl (centres undefined) | 48 to 50 °C |
| Cc1cc2cnnc(OCc3ccccc3)c2n1Cc1ccccc1 | 124 °C |
| CCC12CCC3=C(CCc4cc(OC(C)=O)ccc43)C1CCC2=O (centres undefined) | 132 to 134 °C |
| Cc1c(N)nc(=S)n(C)c1N | 178 °C |
| N#Cc1ccc2[nH]c3c(c2c1)CC(NC(=O)OCc1ccccc1)CC3 (centres undefined) | 141 to 143 °C |
